Results reported in the kinase profiling compilation of Christmann-Franck et al. (2016).

Columns and labels:
Assay in all cases: radiometric filter-binding kinase assay, Kinase HotSpot
Conditions in all cases: compound 0.5 µM; ATP 10 µM
[1] = target: ADRBK1 (human) (UniProt P25098)
[2] = target: CAMKK1 (human) (UniProt Q8N5S9)
[3] = target: CDK3 CCNE1 (human) (UniProt Q00526+P24864)
[4] = target: CLK3 (human) (UniProt P49761)
[5] = target: CSNK1A1 (human) (UniProt P48729)
[6] = target: CSNK1E (human) (UniProt P49674)
Sequence of CSNK1E (human) (P49674 whole entry, looked up): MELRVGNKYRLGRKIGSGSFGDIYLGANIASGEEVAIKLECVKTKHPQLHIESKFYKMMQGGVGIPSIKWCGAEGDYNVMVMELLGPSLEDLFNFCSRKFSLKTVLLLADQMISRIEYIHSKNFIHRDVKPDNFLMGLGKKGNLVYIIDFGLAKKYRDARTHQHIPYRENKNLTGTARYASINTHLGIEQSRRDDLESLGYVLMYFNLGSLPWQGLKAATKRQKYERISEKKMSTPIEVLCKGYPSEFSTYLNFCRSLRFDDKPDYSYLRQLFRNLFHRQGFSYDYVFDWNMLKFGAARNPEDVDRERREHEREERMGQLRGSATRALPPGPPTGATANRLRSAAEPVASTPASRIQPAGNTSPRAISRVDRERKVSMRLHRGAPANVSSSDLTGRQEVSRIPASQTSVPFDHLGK

[7] = target: CSNK2A1 (human) (UniProt P68400)
[8] = target: DYRK1B (human) (UniProt Q9Y463)
Sequence of DYRK1B (human) (Q9Y463 whole entry, looked up): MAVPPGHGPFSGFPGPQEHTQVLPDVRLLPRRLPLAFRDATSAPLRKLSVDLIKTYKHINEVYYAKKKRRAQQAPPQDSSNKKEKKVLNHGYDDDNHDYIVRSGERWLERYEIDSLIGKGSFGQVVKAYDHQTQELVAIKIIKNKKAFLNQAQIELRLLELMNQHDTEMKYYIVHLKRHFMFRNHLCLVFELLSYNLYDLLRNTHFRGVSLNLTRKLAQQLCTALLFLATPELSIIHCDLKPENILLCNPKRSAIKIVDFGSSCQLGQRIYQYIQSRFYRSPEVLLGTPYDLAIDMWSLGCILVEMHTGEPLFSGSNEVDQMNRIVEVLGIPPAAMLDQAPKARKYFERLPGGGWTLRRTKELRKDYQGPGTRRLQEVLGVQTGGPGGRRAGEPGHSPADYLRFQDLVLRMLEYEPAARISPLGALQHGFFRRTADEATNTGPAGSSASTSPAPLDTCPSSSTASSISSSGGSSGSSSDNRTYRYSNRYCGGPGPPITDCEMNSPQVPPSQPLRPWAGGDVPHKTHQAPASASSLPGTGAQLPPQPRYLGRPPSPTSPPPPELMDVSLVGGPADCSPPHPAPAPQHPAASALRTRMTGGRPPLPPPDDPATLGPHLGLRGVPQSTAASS

[9] = target: EPHA3 (human) (UniProt P29320)
[10] = target: EPHA7 (human) (UniProt Q15375)
Sequence of EPHA7 (human) (Q15375 whole entry, looked up): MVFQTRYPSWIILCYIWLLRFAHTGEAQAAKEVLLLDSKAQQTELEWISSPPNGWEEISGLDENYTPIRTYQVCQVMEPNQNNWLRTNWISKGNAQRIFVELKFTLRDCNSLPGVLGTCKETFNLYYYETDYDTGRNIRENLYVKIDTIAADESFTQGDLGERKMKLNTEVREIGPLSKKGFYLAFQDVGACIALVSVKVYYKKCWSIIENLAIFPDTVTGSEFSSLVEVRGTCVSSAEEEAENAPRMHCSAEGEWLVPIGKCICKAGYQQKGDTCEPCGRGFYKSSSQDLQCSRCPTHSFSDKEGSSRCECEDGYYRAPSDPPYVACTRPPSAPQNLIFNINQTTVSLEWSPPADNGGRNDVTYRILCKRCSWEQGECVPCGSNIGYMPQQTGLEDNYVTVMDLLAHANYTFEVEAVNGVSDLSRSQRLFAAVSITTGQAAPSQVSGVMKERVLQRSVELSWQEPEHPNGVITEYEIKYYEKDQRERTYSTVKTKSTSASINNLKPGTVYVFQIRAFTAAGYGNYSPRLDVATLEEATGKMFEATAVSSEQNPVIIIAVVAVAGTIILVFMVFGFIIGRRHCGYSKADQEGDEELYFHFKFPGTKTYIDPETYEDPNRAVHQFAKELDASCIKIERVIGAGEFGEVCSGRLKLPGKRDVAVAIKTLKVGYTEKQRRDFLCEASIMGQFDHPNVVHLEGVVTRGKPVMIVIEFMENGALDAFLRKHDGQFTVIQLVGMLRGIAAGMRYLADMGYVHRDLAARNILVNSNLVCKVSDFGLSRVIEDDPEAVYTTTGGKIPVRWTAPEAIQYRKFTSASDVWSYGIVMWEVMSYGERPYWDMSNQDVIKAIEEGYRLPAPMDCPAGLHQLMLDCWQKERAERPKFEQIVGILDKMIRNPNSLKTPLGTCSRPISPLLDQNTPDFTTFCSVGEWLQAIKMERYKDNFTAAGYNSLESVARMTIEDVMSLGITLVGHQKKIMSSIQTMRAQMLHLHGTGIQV

[11] = target: EPHB1 (human) (UniProt P54762)
[12] = target: ERBB2 (human) (UniProt P04626)
[13] = target: FGR (human) (UniProt P09769)
[14] = target: FYN (human) (UniProt P06241)
[15] = target: IKBKB (human) (UniProt O14920)
[16] = target: IKBKE (human) (UniProt Q14164)
[17] = target: JAK3 JH1 JH2 (human) (UniProt P52333)
Sequence of JAK3 JH1 JH2 (human) (P52333 whole entry, looked up): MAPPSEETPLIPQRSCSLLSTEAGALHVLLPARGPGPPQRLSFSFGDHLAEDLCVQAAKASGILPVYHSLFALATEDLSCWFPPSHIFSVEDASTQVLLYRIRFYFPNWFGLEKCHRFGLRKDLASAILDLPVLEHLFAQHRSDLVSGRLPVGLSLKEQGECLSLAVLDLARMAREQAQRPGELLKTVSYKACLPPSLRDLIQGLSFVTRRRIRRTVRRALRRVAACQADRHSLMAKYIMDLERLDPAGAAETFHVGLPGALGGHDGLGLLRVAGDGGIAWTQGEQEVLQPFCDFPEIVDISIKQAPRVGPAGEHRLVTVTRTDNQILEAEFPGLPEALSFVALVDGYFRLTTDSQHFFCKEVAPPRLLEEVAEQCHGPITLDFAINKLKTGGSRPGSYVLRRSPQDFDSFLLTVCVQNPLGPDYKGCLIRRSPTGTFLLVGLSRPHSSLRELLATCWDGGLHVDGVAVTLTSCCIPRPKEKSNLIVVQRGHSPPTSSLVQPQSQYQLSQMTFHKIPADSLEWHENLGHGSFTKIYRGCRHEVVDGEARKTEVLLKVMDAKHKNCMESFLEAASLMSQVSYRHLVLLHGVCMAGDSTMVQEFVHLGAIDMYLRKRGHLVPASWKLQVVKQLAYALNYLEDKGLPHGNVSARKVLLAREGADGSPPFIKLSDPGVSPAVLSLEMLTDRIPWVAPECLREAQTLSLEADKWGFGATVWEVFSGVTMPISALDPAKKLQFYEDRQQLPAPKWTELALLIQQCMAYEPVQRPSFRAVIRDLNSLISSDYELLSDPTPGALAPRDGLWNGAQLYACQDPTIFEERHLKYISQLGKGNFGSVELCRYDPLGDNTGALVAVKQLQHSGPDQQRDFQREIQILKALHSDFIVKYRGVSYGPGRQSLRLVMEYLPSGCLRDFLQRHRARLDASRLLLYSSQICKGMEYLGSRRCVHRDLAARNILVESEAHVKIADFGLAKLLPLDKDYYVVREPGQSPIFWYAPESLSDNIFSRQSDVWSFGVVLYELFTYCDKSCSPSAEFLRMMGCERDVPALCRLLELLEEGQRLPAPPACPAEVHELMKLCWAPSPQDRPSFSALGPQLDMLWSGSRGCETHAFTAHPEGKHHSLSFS

[18] = target: MAP3K11 (human) (UniProt Q16584)
[19] = target: MAP4K2 (human) (UniProt Q12851)
[20] = target: MAPKAPK2 (human) (UniProt P49137)
Sequence of MAPKAPK2 (human) (P49137 whole entry, looked up): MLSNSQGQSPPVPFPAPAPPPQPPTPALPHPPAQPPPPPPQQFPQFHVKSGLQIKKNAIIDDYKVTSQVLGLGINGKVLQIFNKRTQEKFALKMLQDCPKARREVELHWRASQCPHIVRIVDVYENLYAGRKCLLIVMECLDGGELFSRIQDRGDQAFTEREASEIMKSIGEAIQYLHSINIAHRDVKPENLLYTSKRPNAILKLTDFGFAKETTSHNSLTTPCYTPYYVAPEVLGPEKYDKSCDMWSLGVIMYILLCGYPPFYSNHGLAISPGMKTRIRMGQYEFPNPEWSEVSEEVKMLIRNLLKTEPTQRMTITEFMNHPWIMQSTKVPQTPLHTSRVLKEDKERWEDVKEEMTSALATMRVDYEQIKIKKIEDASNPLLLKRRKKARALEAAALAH

[21] = target: MLTK (human) (UniProt Q9NYL2)
[22] = target: MST1R (human) (UniProt Q04912)
[23] = target: MUSK (human) (UniProt O15146)
[24] = target: MYLK2 (human) (UniProt Q9H1R3)
[25] = target: NEK2 (human) (UniProt P51955)
Sequence of NEK2 (human) (P51955 whole entry, looked up): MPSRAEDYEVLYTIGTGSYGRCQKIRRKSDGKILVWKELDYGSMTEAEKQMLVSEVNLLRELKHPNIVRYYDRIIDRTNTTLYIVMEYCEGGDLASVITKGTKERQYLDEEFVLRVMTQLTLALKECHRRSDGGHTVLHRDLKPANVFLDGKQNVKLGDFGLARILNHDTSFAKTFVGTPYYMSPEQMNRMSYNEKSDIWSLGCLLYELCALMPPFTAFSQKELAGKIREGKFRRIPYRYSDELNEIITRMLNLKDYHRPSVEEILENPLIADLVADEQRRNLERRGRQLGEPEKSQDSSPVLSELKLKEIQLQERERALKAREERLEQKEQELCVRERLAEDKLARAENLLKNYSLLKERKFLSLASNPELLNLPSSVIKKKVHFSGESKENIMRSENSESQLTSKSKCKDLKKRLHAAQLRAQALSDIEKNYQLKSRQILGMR

[26] = target: PAK4 (human) (UniProt O96013)
[27] = target: PBK (human) (UniProt Q96KB5)
[28] = target: PKN2 (human) (UniProt Q16513)
[29] = target: PLK3 (human) (UniProt Q9H4B4)
Sequence of PLK3 (human) (Q9H4B4 whole entry, looked up): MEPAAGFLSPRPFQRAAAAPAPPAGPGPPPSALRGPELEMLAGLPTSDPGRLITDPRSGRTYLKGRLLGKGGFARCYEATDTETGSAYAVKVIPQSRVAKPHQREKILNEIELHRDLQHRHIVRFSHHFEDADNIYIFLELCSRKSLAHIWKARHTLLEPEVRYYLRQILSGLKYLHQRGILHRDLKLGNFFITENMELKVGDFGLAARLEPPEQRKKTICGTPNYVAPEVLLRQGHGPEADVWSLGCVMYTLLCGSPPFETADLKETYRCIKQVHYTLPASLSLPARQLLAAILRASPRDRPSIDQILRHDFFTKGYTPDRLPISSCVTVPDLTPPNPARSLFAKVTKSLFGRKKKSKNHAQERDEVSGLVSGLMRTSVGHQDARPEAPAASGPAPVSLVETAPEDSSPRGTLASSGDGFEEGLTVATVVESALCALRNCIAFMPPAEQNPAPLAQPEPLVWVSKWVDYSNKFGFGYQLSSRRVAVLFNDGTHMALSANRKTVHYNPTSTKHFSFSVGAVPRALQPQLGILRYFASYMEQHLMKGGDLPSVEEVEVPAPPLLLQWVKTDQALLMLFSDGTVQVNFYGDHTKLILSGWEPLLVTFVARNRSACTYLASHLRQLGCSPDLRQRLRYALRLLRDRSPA

[30] = target: PRKCA (human) (UniProt P17252)
[31] = target: PRKCB2 (human) (UniProt P05771)
[32] = target: PRKCI (human) (UniProt P41743)
[33] = target: PRKG2 (human) (UniProt Q13237)
[34] = target: RIPK2 (human) (UniProt O43353)
[35] = target: ROCK1 (human) (UniProt Q13464)
[36] = target: RPS6KB1 (human) (UniProt P23443)
[37] = target: STK17A (human) (UniProt Q9UEE5)
[38] = target: STK33 (human) (UniProt Q9BYT3)
[39] = target: TBK1 (human) (UniProt Q9UHD2)
[40] = target: TYRO3 (human) (UniProt Q06418)
[41] = target: IGF1R (human) (UniProt P08069)
[42] = target: MAP3K5 (human) (UniProt Q99683)

Sequence of CSNK1A1 (human) (P48729 whole entry, looked up): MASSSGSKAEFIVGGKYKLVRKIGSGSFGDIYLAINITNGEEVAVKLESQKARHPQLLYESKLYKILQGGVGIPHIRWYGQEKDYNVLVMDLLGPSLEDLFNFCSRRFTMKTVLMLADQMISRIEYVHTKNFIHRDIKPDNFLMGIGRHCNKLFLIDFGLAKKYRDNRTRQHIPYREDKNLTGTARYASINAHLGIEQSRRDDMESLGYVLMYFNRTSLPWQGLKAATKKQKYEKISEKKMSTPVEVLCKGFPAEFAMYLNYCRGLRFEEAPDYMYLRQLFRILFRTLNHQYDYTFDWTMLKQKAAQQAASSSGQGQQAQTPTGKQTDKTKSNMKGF

O=C(Nc1ccc(Cl)cc1)c1ccccc1NCc1ccncc1
residual activity [1]: 98.2%
residual activity [2]: 98.5%
residual activity [3]: 87.4%
residual activity [4]: 98.1%
residual activity [5]: 88.1%
residual activity [6]: 92.5%
residual activity [7]: 91.1%
residual activity [8]: 106%
residual activity [9]: 92.1%
residual activity [10]: 95%
residual activity [11]: 90.2%
residual activity [12]: 98.7%
residual activity [13]: 83.8%
residual activity [14]: 97%
residual activity [15]: 99.3%
residual activity [16]: 98.9%
residual activity [17]: 87.8%
residual activity [18]: 89%
residual activity [19]: 97.3%
residual activity [20]: 97.6%
residual activity [21]: 86%
residual activity [22]: 90.5%
residual activity [23]: 95.9%
residual activity [24]: 99.5%
residual activity [25]: 88.4%
residual activity [26]: 90.6%
residual activity [27]: 88.5%
residual activity [28]: 93.2%
residual activity [29]: 98.5%
residual activity [30]: 96.7%
residual activity [31]: 93.3%
residual activity [32]: 98.7%
residual activity [33]: 99.1%
residual activity [34]: 82.9%
residual activity [35]: 98.4%
residual activity [36]: 92.5%
residual activity [37]: 94.7%
residual activity [38]: 86.4%
residual activity [39]: 88.4%
residual activity [40]: 105%

O=C1Cc2c([nH]c3ccc([N+](=O)[O-])cc23)-c2ccccc2N1
residual activity [1]: 91.8%
residual activity [2]: 91.7%
residual activity [3]: 56.8%
residual activity [4]: 106%
residual activity [5]: 103%
residual activity [6]: 95.9%
residual activity [7]: 86.8%
residual activity [8]: 87.5%
residual activity [9]: 97.8%
residual activity [10]: 95%
residual activity [11]: 112%
residual activity [12]: 94.8%
residual activity [13]: 50.3%
residual activity [14]: 53.1%
residual activity [41]: 93%
residual activity [15]: 102%
residual activity [16]: 93.4%
residual activity [17]: 99.7%
residual activity [18]: 11.8%
residual activity [42]: 101%
residual activity [19]: 8.77%
residual activity [20]: 77.4%
residual activity [22]: 103%
residual activity [23]: 68.5%
residual activity [24]: 94.8%
residual activity [25]: 92.4%
residual activity [26]: 93.9%
residual activity [27]: 85.1%
residual activity [28]: 74.5%
residual activity [29]: 98.8%
residual activity [30]: 59.9%
residual activity [31]: 105%
residual activity [32]: 83.3%
residual activity [33]: 97.6%
residual activity [34]: 43.4%
residual activity [35]: 91.2%
residual activity [36]: 103%
residual activity [37]: 46.4%
residual activity [38]: 79.9%
residual activity [39]: 82.4%
residual activity [40]: 96.7%
